Literature values, collected in US20200289439A1, “Process of Manufacturing a Stable, Ready To Use Infusion Bag For An Oxidation Sensitive Formulation” (InnoPharma Licensing, LLC, priority 2013, published 2020).

Key:
[1] = six adult volunteers
[2] = intravenous; therapeutic dosing, up to 4,000 mg daily

## CC(=O)Nc1ccc(O)cc1 [Acetaminophen, N-(4-hydroxyphenyl)acetamide]
[1]; intravenous vs oral
  mean intravenous Cmax compared to oral route: nearly two
[1]; intravenous vs rectal
  mean intravenous Cmax compared to rectal route: four fold higher
[2]
  hepatotoxicity: rarely associated with hepatotoxicity
